Data as given in PMC11267968 (BMC Cancer, 2024).

What was measured:
U87 cell xenograft = system: U87 cell xenograft; parameters: method as in PMID 26636389; conditions: U87 cell xenograft model; cited from earlier work
[1] = system: orthotopic intracranial GL261 cell tumours; parameters: method as in PMID 26636389; conditions: cited from earlier work
[2] = system: subcutaneous GL2612 tumour; parameters: method as in PMID 29993291; conditions: with TMZ; mice; cited from earlier work
C6 orthotopic glioma = system: C6 orthotopic glioma; parameters: method as in PMID 29993291; conditions: with TMZ; C6 orthotopic rat model of glioma; cited from earlier work
[3] = Body weight in orthotopic glioblastoma mice; type: in vivo, C57BL/6J mice; conditions: repeated treatment; AT-0174 […] mg/kg PO; TMZ 8 mg/kg IP; compared to vehicle
Text: Starting from day 6 after tumour cell inoculation, all mice were monitored in vivo until Day 55 for tumour growth (assessed by bioluminescence and measured on days 6, 14, 21, 28, 35, 42, and 49), body weight (monitored 3 times per week until day 18, and then daily from day 19–55), and survival.

[4] = system: tumour-infiltrating lymphocytes in GL261(luc2) glioblastomas; experiment: Immune response profiling of tumour-infiltrating lymphocytes by FACS; type: in vivo, C57BL/6J mice; conditions: day 16, AT-0174 […] mg/kg PO, TMZ 8 mg/kg IP
Text: On day 16 post-tumour inoculation, satellite animals from each experimental group were euthanized, and tumours were collected. Tumours were processed for organ dissociation using the GentleMACS system (Miltenyi Biotec) and myelin debris removal and homogenate purification through a Percoll gradient. Tumour homogenates were then processed for immunostaining and profiling analysis by flow cytometry for the lymphoid component according to a marker panel including CD45, CD3, CD4, CD8, IFNγ, CD25, and FoxP3. For IFNγ, homogenate samples were first stimulated with a cocktail of Phorbol 12-myristate 13-acetate, Ionomycin and Brefeldin A. Briefly, to assess viability, cells were stained with LIVE/DEAD Zombie NIR (Biolegend). For simultaneous detection of the intracellular molecule, after fixed, cells were permeabilized with Foxp3 transcription factor staining buffer set according to the manufacturer’s protocol (eBioscience). All flow antibodies were obtained from BioLegend.

Cn1cc(C[C@H](N)C(=O)O)c2ccccc21 [1-MT, 1-methyltryptophan]
Efficacy when given alone (U87 cell xenograft): ineffective | Survival duration ([1]; TMZ in combination with 1-MT, compared to TMZ alone): slight increase in the survival duration | Efficacy when given alone ([1]; orthotopic GL261 model, given alone): ineffective

Cc1ccc(NC(=O)Nc2cc(-c3ccccc3-c3nn[nH]n3)ccc2N(CC(C)C)CC(C)C)cc1 [PCC0208009]
Subcutaneous tumour growth [2]: significantly synergised with TMZ | Survival (C6 orthotopic glioma): improved survival

Cn1nnc2c(C(N)=O)ncn2c1=O [TMZ, Temozolomide]
Effect on body weight [3]: mild (though non-significant) drop in body weight | Cytotoxic CD8+ T cells in tumour ([4]; vs control): non-significant increase | Tregs (CD4+CD25+FoxP3+ cells) in tumour ([4]; vs vehicle control): higher
